Test results from patent US5646185A, “Tumor treatment method” (priority 1993, dated 1997).

What was measured:
[1] = tested on: A549 human adenocarcinoma cells; experiment: Survival (colony forming) assay of tumor cells under aerobic or hypoxic conditions with drug treatment; conditions: for aerobic cytotoxicity of the drug by itself: TPA 1 uM, PDA 1 uM, OAG 200 uM, thapsigargin 2 uM, compound 48/80 50 mg/ml, pentoxyfylline 1 mM; for effect on cell survival in normally oxygenated (aerated) cells: aerated A549 cells; for reduction of cell survival in hypoxic cells relative to the cell survival fraction with hypoxia alone: 20 hours of hypoxia (0.02% O2)
Procedure: A549 human adenocarcinoma cells were maintained in culture with alpha MEM containing 10% fetal calf serum. Cells were plated two days before hypoxia treatment in 60 mm glass (Corning) tissue culture dishes with notched sides at a density of 1×10^6 cells/dish. Hypoxia treatment of cells may be performed in any method known and available to those skilled in the art.
On the day of the hypoxia treatment, cells were re-fed with fresh media and incubated 4-6 hours before being exposed to hypoxia. The petri dishes were preferably then placed in specially designed aluminum hypoxia chambers that are prewarmed overnight at 37° C. The chambers were sealed and subjected to successive rounds of evacuation followed by flushing with 95% N2 /5% CO2 while slowly being agitated on a reciprocating shaker. The chambers were then placed in a 37° C. incubator and kept on a reciprocating shaker for the duration of the hypoxic treatment.
Oxygen concentration may be monitored with the use of a Clark-type electrode, such as commercially available from Controls Katharobic, Edmonton, Canada.
After hypoxic treatment, the seals to the chambers were broken, and the cells were washed with phosphate buffered saline, trypsinized, and then plated into tissue culture dishes to assay for colony forming ability.
All drugs were made from fresh stocks on the day of the treatment. In the combined drug and hypoxia treatments, the cells were pretreated for one hour with the drug before being exposed to hypoxia and then plated into tissue culture plates. Cells were then treated in accordance with several different methods: 1) exposure of the cells to thapsigargin for one hour prior to and continuous exposure for the duration of the hypoxia, and then plated for survival; 2) one hour exposure to the PKC activator drug in standard air followed by continuous exposure for the duration of hypoxia, and then plated for survival; 3) continuous exposure during hypoxia to TPA followed by immediate plating for survival; 4) 19 hour hypoxia treatment followed by one hour exposure to TPA in air or hypoxia using a Bactron II anaerobic chamber (Sheldon Labs, Cornelius, Oreg.), and then plating for survival; 5) continuous exposure during 19 hours of hypoxia with phospholipase inhibitors (compound 48/80 and pentoxyfylline), exposure to TPA for 1 hour in air, and then plating for survival.
TPA, PDA, staurosporine, compound 48/80, and pentoxyfylline are commercially available from Sigma Chemicals, St. Louis, Mo. Thapsigargin, herbimycin A, and genistein are commercially available from Gibco/BRL, Gaithersberg, Md.
After various experimental treatments, cells were plated into Nunc tissue culture plates at the appropriate concentrations in triplicate. The plates are placed in a 37° C. incubator and stained 10 days after the experiment with 1% crystal violet in 10% methanol. Viable colonies are defined as colonies with 50 or more cells.

PKC-epsilon = experiment: Western blot of PKC epsilon levels in hypoxic tumor cells; type: cell-based, human; conditions: for effect on PKC epsilon induction/activation by hypoxia and TPA: alone or in combination, FIG. 9
Procedure: Western blotting methods, as detailed in Example 2, were used to validate that the treatment method of the invention increases levels of PKC. […] Little accumulation is seen before 9 hours of hypoxic exposure.
Cells were lysed in a 50 mM phosphate buffer, sonicated with 4.5 second pulses of 75 W with cooling on ice between pulses, and followed by 3 rounds of freezing/thawing. Protein concentrations of each sample may be estimated using the bicinchoninic acid method. 200 μg of protein were loaded per lane. After running for 2 hours at 40 mA in a 7.5% polyacrylamide gel, the gel is transferred onto Hybond ECL, (Amersham, Arlington Heights, Ill.) for 2 hours with the use of a Bio-Rad semi-dry transfer system. After the transfer, the gel may be stained with 0.15% Coomassie blue to ensure uniform transfer. […] Preferably, the membrane is probed using the method described in Kim, et al., which is incorporated herein by reference, and autoradiographed utilizing enhanced chemiluminescence (ECL) according to the manufacturer's protocol (Amersham, Arlington Heights, Ill.).

protein kinase C (PKC) = experiment: Protein kinase C (PKC) activation assay; type: biochemical; conditions: approximate
Procedure: The EC50 is the concentration of compound that produces half-maximal stimulation of protein kinase C activity in a given assay.
Protein kinase C activation is measured in an assay that measures PKC phosphorylation activity using as substrate for PKC myelin basic protein. […] The reaction was initiated by an appropriate amount of crude cytosol extract. The phosphorylated product from 10 μl of reaction mixture was quantified using phospho-cellulose paper and washing method of Cook, et al. Background ^32 P incorporation in the absence of calcium and phosphatidyl serine/diolein and in the presence of 1 mM EGTA was subtracted from total incorporation in the complete PKC assay reaction mixture to determine the extent of PKC-dependent phosphorylation.
Suitable for use in this assay as a PKC source is either a crude extract, prepared as below, or, more preferably, purified PKC. Purified PKC is obtained from commercial sources.

[2] = tested on: A549 human adenocarcinoma cells; experiment: Pulsed-field gel electrophoresis of DNA degradation in hypoxia-treated cells; type: cell-based; conditions: added to hypoxia treated cells
Source text: The mechanism of cell death by hypoxia appears to be necrosis rather than apoptosis. Using pulsed-field gel electrophoresis, a steady increase in DNA degradation as a function of time under hypoxia may be found. The methods followed those given in Example 2. The pattern of DNA degradation (not shown) is not one that is characteristic of apoptosis. The DNA was not fragmented into distinct nucleosome ladders, which is one of the hallmark characteristics of apoptosis; rather, it separated as a smear which is indicative of death by necrosis.
Pulsed-field gel electrophoresis may be performed in any manner known and available to those skilled in the art. One preferred method is described in Giaccia, 1992b, which is incorporated herein by reference. Briefly, fresh media was added to all of the treatment groups on the day of the treatment. After treatment, cells were washed with phosphate buffered saline (PBS), trypsinized, and resuspended in 1% agarose/PBS. The cells embedded in agarose were allowed to solidify in glass tubes and then cut into 5 mm plugs. The plugs were lysed in 0.5M EDTA, 1% sarkosyl, and 1 mg/ml proteinase K (Boehringer Mannheim, Indianapolis), and incubated at 50° C. for 16 hours in this lysis buffer.
After dialyzing the plugs against 25 volumes of 10 mM Tris and 1 mM EDTA for 4 hours, the plugs were then treated with 20 mg/ml RNase A for 3 hours at 37° C. […]

`CC(=O)CCCCn1c(=O)c2c(ncn2C)n(C)c1=O` [pentoxyfylline] was tested, and the “protection against TPA mediated hypoxic cell killing (increase in survival)” value ([1]; inhibitor during 19 hours of hypoxia, then TPA 1 hour, FIG. 8) was 100 fold and the “effect on PKC epsilon induction/activation by hypoxia and TPA” value (PKC-epsilon) was “do not inhibit PKC activation”.
For `CCCCCCCCCC(=O)O[C@@H]1[C@@H](C)[C@@]2(O)[C@@H](C=C(CO)C[C@@]3(O)C(=O)C(C)=C[C@@H]23)[C@@H]2C(C)(C)[C@]12OC(=O)CCCCCCCCC` [PDA, 4α-phorbol-12-13-didecanoate], the “aerobic cytotoxicity of the drug by itself” value (shortened to “aerobic cytotoxicity”) [1] was “little or no aerobic cytotoxicity”, the “effect on cell survival (control phorbol ester)” value ([1]; aerobic and hypoxic A549 cells, FIG. 3) was “indistinguishable from no drug treatment” and the “effect on steady state levels of PKC” value (PKC-epsilon; data not shown) was “has no effect”.
`CCCCCCCC/C=C\CCCCCCCC(=O)OCC(CO)OC(C)=O` (stereo not shown) [OAG, 2-acetyl-1-oleoylglycerol] was tested, and the “aerobic cytotoxicity” value [1] was “little or no aerobic cytotoxicity” and the “effect on cell survival in normally oxygenated (aerated) cells” value (shortened to “effect on cell survival … (aerated) cells”) ([1]; FIG. 3) was “none of the PKC activators had an appreciable effect on cell survival”.
With `C/C=C(/C)C(=O)O[C@H]1C(C)=C2[C@H]([C@@H]1OC(=O)CCCCCCC)[C@@](C)(OC(C)=O)C[C@H](OC(=O)CCC)[C@@]1(O)[C@H]2OC(=O)[C@@]1(C)O` [thapsigargin] the “selective killing of hypoxic cells” value ([1]; 2 μM, FIG. 3) was “selectively killed hypoxic cells”, the “reduction of cell survival in hypoxic cells relative to the cell survival fraction with hypoxia alone” value ([1]; FIG. 3) was “about 1,000 fold” and the “aerobic cytotoxicity” value [1] was “little or no aerobic cytotoxicity”. For the same compound, the “effect on cell survival … (aerated) cells” value ([1]; FIG. 3) was “none of the PKC activators had an appreciable effect on cell survival”.
In the case of `CCCCCCCCCCCCCC(=O)O[C@@H]1[C@@H](C)[C@@]2(O)[C@@H](C=C(CO)C[C@]3(O)C(=O)C(C)=C[C@@H]23)[C@@H]2C(C)(C)[C@]12OC(C)=O` [TPA, 12-O-tetradecanoyl-phorbol-13-acetate], the “selective killing of hypoxic versus aerobic cells” value ([1]; 1 μM, FIG. 3) is reported as “selectively killed hypoxic, but not aerobic cells”, the “reduction of cell survival in hypoxic cells relative to the cell survival fraction with hypoxia alone” value ([1]; FIG. 3) is reported as “about 1,000 fold” and the “aerobic cytotoxicity” value [1] is reported as “little or no aerobic cytotoxicity”. The “effect on cell survival … (aerated) cells” value ([1]; FIG. 3) was “none of the PKC activators had an appreciable effect on cell survival”, the “increase in PKC levels over that of hypoxia alone” value (PKC-epsilon; one hour exposure following 19 hours of hypoxia, FIG. 7B, 60 min) was 5 fold and the EC50 (protein kinase C (PKC)) was roughly 1000 nM. The “DNA fragmentation over that found with hypoxia treatment alone” value [2] was “does not increase DNA fragmentation”.
For `COC1C=CC=C(C)C(=O)NC2=CC(=O)C=C(C2=O)C(OC)C(C)CC(OC)C(OC)C(C)C=C(C)C1OC(N)=O` (stereo not shown) [herbimycin A], the “effect on PKC epsilon induction/activation by hypoxia and TPA” value (PKC-epsilon) was “has no effect on PKC induction”.
